In the test the target is T1, Malonyl-CoA decarboxylase, mitochondrial (Homo sapiens, UniProt O95822).
T1 sequence (O95822 whole entry): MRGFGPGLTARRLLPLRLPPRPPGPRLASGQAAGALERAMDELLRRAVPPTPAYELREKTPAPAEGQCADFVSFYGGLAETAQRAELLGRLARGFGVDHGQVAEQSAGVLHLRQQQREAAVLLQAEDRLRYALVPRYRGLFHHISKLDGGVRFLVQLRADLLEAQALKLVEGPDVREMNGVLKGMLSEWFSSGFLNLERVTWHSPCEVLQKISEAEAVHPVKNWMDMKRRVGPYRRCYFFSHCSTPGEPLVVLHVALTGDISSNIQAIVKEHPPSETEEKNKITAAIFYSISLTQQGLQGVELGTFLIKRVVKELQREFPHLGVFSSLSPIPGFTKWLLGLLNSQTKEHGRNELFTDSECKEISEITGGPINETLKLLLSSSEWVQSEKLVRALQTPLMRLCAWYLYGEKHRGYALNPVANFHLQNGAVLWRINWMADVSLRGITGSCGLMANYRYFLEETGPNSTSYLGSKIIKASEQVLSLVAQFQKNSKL
The experiment in a line: Inhibition of MBP fused human MCD.

`O=C(NCC1CCCCC1)c1ccc(C(=O)C(F)(F)F)cc1` came in with a 50% inhibitory concentration (IC50) of 2.3 µM.

Source of the values: ChEMBL document CHEMBL1139099, “Novel trifluoroacetophenone derivatives as malonyl-CoA decarboxylase inhibitors” (Bioorg Med Chem Lett, 2007).
